This assay can be described thus: In vitro inhibition of purified Carboxypeptidase B (CPB) by ECL assay.

The record followed here is BindingDB's records for doi:10.1021/jm034141y (Merck Research Laboratories, 2003).

As usually defined, the IC50 is the concentration needed to halve the response being measured. Higher therefore signals lower potency. In turn, `O=C(O)C(Cc1ccccc1)c1cnc[nH]1` (configuration not stated) [2-(1H-Imidazol-4-yl)-3-phenyl-propionic acid] returned an IC50 of over 100000 nM. `Nc1ccc(CC(C(=O)O)c2cn(Cc3ccccc3)cn2)cn1` (configuration not stated) [3-(6-Amino-pyridin-3-yl)-2-(1-benzyl-1H-imidazol-4-yl)-propionic acid] came in with an IC50 of 21 nM.
